From patent US6770020B2 (priority 2001, dated 2004)

Columns and labels:
[1] = rats; cited from earlier work
[2] = system: human glioblastoma cells (TB 10); assay: ICP-MS Gd release/retention after Gd-DTPA wash-out; details: 10 mg/ml 72 hours
[3] = cited from earlier work
[4] = system: human glioblastoma cells (TB 10); assay: MEPHISTO x-ray spectromicroscopy, Gd in nucleus vs. cytoplasm; format: cell-based; details: 10 mg/ml
Procedure: 1) For spectromicroscopy experiments, two series of cell cultures from different passages were prepared, in which 5×10^4 cells/cm^2 were plated in 35 mm plastic Petri dishes, each containing 4 to 5 gold-plated stainless steel substrates (5 mm diameter). The Gd exposure concentration was 10 mg/ml and the exposure times were 0 to 72 hours. At the end of the exposure periods, all dishes were carefully washed three times with phosphate buffered saline (PBS) to remove all unbound Gd-DTPA, fixed in 4% paraformaldheyde in PBS for 20 minutes, and then washed in Milii Q water. The samples were then air-dried at room temperature and etched by exposure to UV light from a low-pressure mercury lamp in the presence of ozone. UV/O3 etching selectively removes carbon and nitrogen from the cells without architectural distortion, thereby preserving the micro localization of all other elements.^(18,19) In the present study, etching was employed to reveal the local (i.e., nuclear) concentration of Gd which would otherwise not be detectable with x-ray absorption spectroscopy. The cell cultures were etched for 116 hours, at a distance of 5 mm from the UV lamp.
Microchemical analysis of the etched cell cultures was performed with the custom-built MEPHISTO (Microscope á Emission de PHotoélectrons par Illumination Synchrotronique de Type Onduleur) X-ray photoelectron emission microscope (X-PEEM), which uses an electron optics system (SpectroMicroTech, Orlando, Fla., USA) to form a magnified image of the photoelectrons emitted by a specimen under soft x-ray illumination. The image magnification is continuously variable up to 8000x, and the optimum lateral resolution is 20 nm^(15). The image pixel intensity (corresponding to total photoelectron yield, per unit area, per unit time) is recorded as a function of photon energy. […] The position and line-shape of spectral features provide element identification and chemical state information. Spectra can be acquired simultaneously from regions selected on the real time image of the sample surface, and the probed depth is on the order of 100 Å. For this work, the MEPHISTO X-PEEM was mounted on the HERMON beamline of the University of Wisconsin-Madison Synchrotron Radiation Center (Stoughton, Wis.).
MEPHISTO micrographs acquired at a specific photon energy were processed in Adobe Photoshop 5.0 software for Macintosh to enhance the contrast and add a scale bar. […]
A comparison of ICP-MS and MEPHISTO data, determines the calibration of the MEPHISTO analysis, and therefore quantitative information on the Gd concentration at the microscopic level. […] These factors were derived from the matching of MEPHISTO data from whole cells to the ICP-MS cell-bulk data, so that they quantitatively overlap. […]

LD50 in rats = format: in vivo; details: 70 kg human, assuming a similar LD50 in man

SMILES: O=C([O-])CN(CCN(CC(=O)[O-])CC(=O)O)CCN(CC(=O)[O-])CC(=O)O.[Gd+3] [Gd-DTPA, gadolinium diethylene triamine pentaacetic acid]
- LD50 [1]: 20 mmol/kg
- immediate loss of Gd from the cell bodies after wash-out ([2]; FIG. 4): about 80%
- intracellular retained Gd concentration ([2]; then two to four hours in physiological solution): 140 µg/mL
- dose eliminated renally ([3]; 6 hours post-injection in man, average): about 83%
- dose found in the urine ([3]; 5 days post-injection in man): approximately 91%
- dose dependence of pharmacokinetics ([3]; humans): independent of the dose
- half life in the blood ([3]; in vivo): around 30 minutes
- Ratio: Gd nucleus/Gd cytoplasm ([4]; exposure time 6 hrs): 1.6
- Ratio: Gd nucleus/Gd cytoplasm ([4]; exposure time 24 hrs): 2.1
- Ratio: Gd nucleus/Gd cytoplasm ([4]; exposure time 48 hrs): 1.0
- Ratio: Gd nucleus/Gd cytoplasm ([4]; exposure time 72 hrs): 1.3
- amount injected for a 50% chance of killing (LD50 in rats): more than 850 g
